One block for each compound: values may come before it. Calls of active or inactive are those of the source. The rule behind the calls is not given here.
Assays:
[1] = molecular target: T1, Vasopressin V2 receptor (Homo sapiens, UniProt P30518); assay: Displacement of conivaptan-red fluorescent probe from SNAP-tagged human vasopressin V2 receptor expressed in HEK293 cells at 10 uM compound pre-illuminated for 10 mins with light at 435 nm and further incubated for 1 hr by HTRF assay relative to control; assay type: cell-based
[2] = molecular target: T1, Vasopressin V2 receptor; assay: Displacement of conivaptan-red fluorescent probe from SNAP-tagged human vasopressin V2 receptor expressed in HEK293 cells compound pre-illuminated for 10 mins with light at 365 nm and further incubated for 1 hr by HTRF assay; assay type: cell-based
[3] = molecular target: T1, Vasopressin V2 receptor; assay: Displacement of conivaptan-red fluorescent probe from SNAP-tagged human vasopressin V2 receptor expressed in HEK293 cells compound pre-illuminated for 10 mins with light at 435 nm and further incubated for 1 hr by HTRF assay; assay type: cell-based
[4] = molecular target: T1, Vasopressin V2 receptor; assay: Displacement of conivaptan-red fluorescent probe from SNAP-tagged human vasopressin V2 receptor expressed in HEK293 cells assessed as off-rate constant at IC50 by TR-FRET based competition association assay; assay type: cell-based; details: filed as antagonist
[5] = molecular target: T1, Vasopressin V2 receptor; assay: Displacement of conivaptan-red fluorescent probe from SNAP-tagged human vasopressin V2 receptor expressed in HEK293 cells assessed as residence time at IC50 by TR-FRET based competition association assay; assay type: cell-based; details: filed as antagonist
[6] = molecular target: T1, Vasopressin V2 receptor; assay: Displacement of conivaptan-red fluorescent probe from SNAP-tagged human vasopressin V2 receptor expressed in HEK293 cells assessed as on-rate constant at IC50 by TR-FRET based competition association assay; assay type: cell-based; details: filed as antagonist
[7] = molecular target: T1, Vasopressin V2 receptor; assay: Antagonist activity at human vasopressin V2 receptor expressed in CHO cells assessed as inhibition of vasopressin induced cAMP production at 10 times Ki preincubated for 30 mins followed by two consecutive washouts and irradiated with light at 365 nm during two washouts; assay type: functional, cell-based
[8] = molecular target: T1, Vasopressin V2 receptor; assay: Antagonist activity at human vasopressin V2 receptor expressed in CHO cells assessed as inhibition of vasopressin induced cAMP production at 10 times Ki preincubated for 30 mins followed by two consecutive washouts and irradiated with light at 435 nm during two washouts; assay type: functional, cell-based
[9] = molecular target: T1, Vasopressin V2 receptor; assay: Displacement of conivaptan-red fluorescent probe from SNAP-tagged human vasopressin V2 receptor expressed in HEK293 cells at 10 uM compound pre-illuminated for 10 mins with light at 365 nm and further incubated for 1 hr by HTRF assay relative to control; assay type: cell-based; details: filed as antagonist
[10] = molecular target: Serine/threonine-protein kinase mTOR (Homo sapiens) (UniProt P42345); assay: (§1) Inhibition of mTOR (unknown origin) assessed as inhibition of p70S6K phosphorylation at 10 times Ki preincubated for 30 mins followed by two consecutive washouts and irradiated with light at 365 nm in first 30 mins of washout and with light at 435 nm in second 30 mins of washout by Western blot analysis
[11] = Drug uptake in Sprague-Dawley rat kidney at 0.1 uM treated for 30 mins followed by extensive drug wash-out for 4 hrs by LC-MS analysis; assay type: ADME, tissue-based; details: in vivo, 0.5 h
[12] = tested on: Mus musculus; assay: (§2) In vivo inhibition of renal cystogenesis in Pkd1 knock-out autosomal dominant polycystic kidney disease mouse model assessed as reduction in kidney size with fewer cysts at 5 mg/kg, sc administered once daily for 7 days compound pre-irradiated with light at 365 nm prior to administration by Hematoxylin-eosin staining based analysis; assay type: functional, organism-based; details: time 7.0 day
[13] = molecular target: T1, Vasopressin V2 receptor; assay: Displacement of conivaptan-red fluorescent probe from SNAP-tagged human vasopressin V2 receptor expressed in HEK293 cells assessed as leftward shift in competition curve at 0.1 uM compound pre-illuminated for 10 mins with light at 365 nm and measured for 10 to 60 mins by dual-point competition association assay; assay type: cell-based; details: filed as antagonist, time 10-60 min
[14] = molecular target: Serine/threonine-protein kinase mTOR (Homo sapiens) (UniProt P42345); assay: Inhibition of mTOR (unknown origin) assessed as inhibition of p70S6K phosphorylation at 10 times Ki preincubated for 30 mins followed by two consecutive washouts and irradiated with light at 365 nm during two washouts by Western blot analysis
[15] = molecular target: Serine/threonine-protein kinase mTOR (Homo sapiens) (UniProt P42345); assay: Inhibition of mTOR (unknown origin) assessed as inhibition of p70S6K phosphorylation at 10 times Ki preincubated for 30 mins followed by two consecutive washouts and irradiated with light at 435 nm during two washouts by Western blot analysis
[16] = molecular target: T1, Vasopressin V2 receptor; assay: (§3) Displacement of conivaptan-red fluorescent probe from SNAP-tagged human vasopressin V2 receptor expressed in HEK293 cells assessed as on-rate constant at 0.1 uM compound pre-illuminated for 10 mins with light at 365 nm by dual-point competition association assay; assay type: cell-based; details: filed as antagonist
[17] = molecular target: Serine/threonine-protein kinase mTOR (Homo sapiens) (UniProt P42345); assay: as §1, with “435” for “365”, “365” for “435”
[18] = molecular target: Vasopressin V1a receptor (Homo sapiens) (UniProt P37288); assay: Displacement of [3H]vasopressin from human V1A receptor expressed in CHO cell membranes at 1 uM compound pre-illuminated for 10 mins with light at 365 nm by radioligand displacement assay relative to control; details: Membrane
[19] = molecular target: T1, Vasopressin V2 receptor; assay: Antagonist activity at human vasopressin V2 receptor expressed in CHO cells assessed as inhibition of cAMP production; assay type: functional, cell-based; details: filed as antagonist
[20] = molecular target: T1, Vasopressin V2 receptor; assay: as §3, with “kinetic rate index by measuring ratio of binding of labeled probe” for “on-rate constant”, “15 mins to 60 mins at IC50” for “0.1 uM”; assay type: cell-based; details: filed as antagonist
[21] = tested on: Kidney; assay: Ex vivo inhibition of renal cystogenesis in ADPKD C57BL/6 mouse kidney assessed as suppression of 8-Br-cAMP-induced cyst development at 10 uM measured after 4 days in presence of 8-Br-cAMP by inverted microscopic analysis; assay type: functional, tissue-based; details: time 4.0 day
[22] = molecular target: T1, Vasopressin V2 receptor; assay: Antagonist activity at human vasopressin V2 receptor expressed in CHO cells assessed as inhibition of AVP-induced cAMP production at 1 uM preincubated for 30 mins followed by two consecutive washouts and irradiated with light at 365 nm during two washouts; assay type: functional, cell-based; details: filed as antagonist
[23] = molecular target: T1, Vasopressin V2 receptor; assay: (§4) Antagonist activity at human vasopressin V2 receptor expressed in CHO cells assessed as inhibition of vasopressin-induced cAMP production at 10 times Ki preincubated for 30 mins followed by two consecutive washouts and irradiated with light at 435 nm in first 30 mins of washout and with light at 365 nm in second 30 mins of washout; assay type: functional, cell-based; details: filed as antagonist
[24] = tested on: Mus musculus; assay: In vivo inhibition of renal cystogenesis in Pkd1 knock-out autosomal dominant polycystic kidney disease mouse model assessed as reduction in kidney size at 5 mg/kg, sc administered once daily for 7 days compound pre-irradiated with light at 365 nm prior to administration; assay type: functional, organism-based; details: time 7.0 day
[25] = molecular target: T1, Vasopressin V2 receptor; assay: Displacement of conivaptan-red fluorescent probe from SNAP-tagged human vasopressin V2 receptor expressed in HEK293 cells assessed as residence time at 0.1 uM compound pre-illuminated for 10 mins with light at 365 nm by dual-point competition association assay; assay type: cell-based; details: filed as antagonist
[26] = tested on: Kidney; assay: Ex vivo target occupancy at vasopressin V2 receptor in Sprague-Dawley rat kidney assessed as endurance in retention time by measuring half life at 0.1 uM treated for 30 mins followed by extensive drug wash-out for 240 mins by LC-MS analysis; assay type: functional, tissue-based
[27] = molecular target: T1, Vasopressin V2 receptor; assay: Displacement of conivaptan-red fluorescent probe from SNAP-tagged human vasopressin V2 receptor expressed in HEK293 cells assessed as off-rate constant at 0.1 uM compound pre-illuminated for 10 mins with light at 365 nm by dual-point competition association assay; assay type: cell-based; details: filed as antagonist
[28] = In vivo inhibition of renal cystogenesis in Pkd1 knock-out autosomal dominant polycystic kidney disease mouse model assessed as disease progression at 5 mg/kg, sc administered once daily for 7 days compound pre-irradiated with light at 365 nm prior to administration; assay type: functional; parameters: scale not given: the % may be the effect or the level left; details: time 7 day
[29] = tested on: Mus musculus; assay: as §2, with “in” for “in kidney size with fewer”, “cysts area” for “cysts”; assay type: functional, organism-based; details: time 7.0 day
[30] = molecular target: T1, Vasopressin V2 receptor; assay: as §4, with “vasopressin induced” for “vasopressin-induced”, “365” for “435”, “435” for “365”; assay type: functional, cell-based
[31] = In vivo inhibition of renal cystogenesis in Pkd1 knock-out autosomal dominant polycystic kidney disease mouse model assessed as disease progression at 5 mg/kg, sc administered once daily for 7 days compound pre-irradiated with light at 435 nm prior to administration; assay type: functional; parameters: scale not given: the % may be the effect or the level left; details: time 7 day
[32] = molecular target: T1, Vasopressin V2 receptor; assay: (§5) Displacement of conivaptan-red fluorescent probe from SNAP-tagged human vasopressin V2 receptor expressed in HEK293 cells assessed as on-rate constant at 1 uM compound pre-illuminated for 10 mins with light at 435 nm by dual-point competition association assay; assay type: cell-based; details: filed as antagonist
[33] = molecular target: T1, Vasopressin V2 receptor; assay: as §5, with “kinetic rate index by measuring ratio of binding of labeled probe” for “on-rate constant”, “15 mins to 60 mins at IC50” for “1 uM”; assay type: cell-based; details: filed as antagonist
[34] = molecular target: T1, Vasopressin V2 receptor; assay: Displacement of conivaptan-red fluorescent probe from SNAP-tagged human vasopressin V2 receptor expressed in HEK293 cells assessed as residence time at 1 uM compound pre-illuminated for 10 mins with light at 435 nm by dual-point competition association assay; assay type: cell-based; details: filed as antagonist
[35] = molecular target: T1, Vasopressin V2 receptor; assay: Displacement of conivaptan-red fluorescent probe from SNAP-tagged human vasopressin V2 receptor expressed in HEK293 cells assessed as off-rate constant at 1 uM compound pre-illuminated for 10 mins with light at 435 nm by dual-point competition association assay; assay type: cell-based; details: filed as antagonist
[36] = tested on: Mus musculus; assay: In vivo inhibition of renal cystogenesis in Pkd1 knock-out autosomal dominant polycystic kidney disease mouse model assessed as reduction in kidney size at 5 mg/kg, sc administered once daily for 7 days compound pre-irradiated with light at 435 nm prior to administration; assay type: functional, organism-based; details: time 7.0 day
[37] = molecular target: Vasopressin V1a receptor (Homo sapiens) (UniProt P37288); assay: Displacement of [3H]vasopressin from human V1A receptor expressed in CHO cell membranes at 1 uM compound pre-illuminated for 10 mins with light at 435 nm by radioligand displacement assay relative to control; details: Membrane

T1 sequence (P30518 whole entry): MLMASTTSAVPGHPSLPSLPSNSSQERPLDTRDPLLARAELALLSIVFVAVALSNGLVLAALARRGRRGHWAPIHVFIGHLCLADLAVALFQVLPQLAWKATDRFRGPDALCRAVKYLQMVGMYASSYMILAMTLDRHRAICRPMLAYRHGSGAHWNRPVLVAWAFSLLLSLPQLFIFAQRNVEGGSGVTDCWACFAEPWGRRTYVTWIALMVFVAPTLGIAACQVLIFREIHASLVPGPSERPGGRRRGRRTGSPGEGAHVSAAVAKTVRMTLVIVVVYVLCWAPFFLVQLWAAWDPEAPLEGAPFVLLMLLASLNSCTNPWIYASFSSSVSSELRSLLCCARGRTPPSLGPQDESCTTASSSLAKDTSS
Vasopressin V1a receptor (Homo sapiens), sequence (P37288 whole entry, looked up): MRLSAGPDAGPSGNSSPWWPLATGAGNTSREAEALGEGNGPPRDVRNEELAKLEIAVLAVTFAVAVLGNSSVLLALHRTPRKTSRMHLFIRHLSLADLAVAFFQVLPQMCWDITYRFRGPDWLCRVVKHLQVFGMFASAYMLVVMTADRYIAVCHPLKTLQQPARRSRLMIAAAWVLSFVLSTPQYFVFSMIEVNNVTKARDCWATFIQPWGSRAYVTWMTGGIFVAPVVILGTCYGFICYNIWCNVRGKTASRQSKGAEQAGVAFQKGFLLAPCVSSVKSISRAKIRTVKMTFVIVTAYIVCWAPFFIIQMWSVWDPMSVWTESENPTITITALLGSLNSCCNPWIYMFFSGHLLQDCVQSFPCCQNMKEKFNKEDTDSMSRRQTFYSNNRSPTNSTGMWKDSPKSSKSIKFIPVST

inhibition [1]: 33%
SMILES: O=C(c1ccc(/N=N/c2ccc(-c3ccccc3)cc2)cc1Cl)N1Cc2cccn2Cc2ccccc21

Ki [2]: 663 nM
SMILES: O=C(c1ccc(/N=N\c2cccc(-c3ccccc3)c2)cc1Cl)N1Cc2cccn2Cc2ccccc21

Ki [3]: 851 nM
SMILES: O=C(c1ccc(/N=N/c2ccc(F)cc2)cc1Cl)N1Cc2cccn2Cc2ccccc21

Ki [2]: 787 nM
SMILES: O=C(c1ccc(/N=N\c2ccccc2-c2ccccc2)cc1Cl)N1Cc2cccn2Cc2ccccc21

K [4]: 0.06 min⁻¹
TIME [5]: 0.3 h
K [6]: 4.6 10^7/M/min
inhibition [7]: inactive
inhibition [8]: inactive
SMILES: Cc1ccc(F)cc1C(=O)Nc1ccc(C(=O)N2Cc3cccn3Cc3ccccc32)c(Cl)c1

inhibition [9]: 51%
SMILES: O=C(c1ccc(/N=N\c2ccc(-c3ccccc3)cc2)cc1Cl)N1Cc2cccn2Cc2ccccc21

Ki [2]: 134 nM
SMILES: Cc1cccc(/N=N\c2ccc(C(=O)N3Cc4cccn4Cc4ccccc43)c(Cl)c2)c1

inhibition [10]: inactive
Drug uptake [11]: 26 nM
Activity [13]: Active
inhibition [14]: Active
inhibition [15]: inactive
K [16]: 6.6 10^5/M/min
inhibition [17]: inactive
inhibition [18]: < 40%
inhibition [19]: Active
Ratio [20]: 1.72
Ki [2]: 40 nM
inhibition [22]: Active
inhibition [23]: Active
TIME [25]: 1.07 h
T1/2 [26]: 1.82 h
K [27]: 0.017 min⁻¹
inhibition ([7]; filed as antagonist): Active
inhibition [30]: inactive
inhibition [8]: inactive
SMILES: Cc1ccc(/N=N\c2ccc(C(=O)N3Cc4cccn4Cc4ccccc43)c(Cl)c2)cc1
inhibition [12]: Active
inhibition [21]: Active
inhibition [24]: Active
Activity [28]: 14.6%
inhibition [29]: Active

Ki [3]: 589 nM
SMILES: O=C(c1ccc(/N=N/c2ccc(C(F)(F)F)cc2)cc1Cl)N1Cc2cccn2Cc2ccccc21

Ki [3]: 281 nM
Drug uptake [11]: 10 nM
K [32]: 1.1 10^5/M/min
Ratio [33]: 0.95
TIME [34]: 0.25 h
K [35]: 0.068 min⁻¹
inhibition [22]: Active
T1/2 [26]: 0.483 h
inhibition ([7]; filed as antagonist): Active
inhibition [37]: < 40%
SMILES: Cc1ccc(/N=N/c2ccc(C(=O)N3Cc4cccn4Cc4ccccc43)c(Cl)c2)cc1
Activity [31]: 18.2%
inhibition [21]: Active
inhibition [36]: Active

Ki [3]: 289 nM
SMILES: O=C(c1ccc(/N=N/c2ccccc2)cc1Cl)N1Cc2cccn2Cc2ccccc21

Reference: ChEMBL document CHEMBL5338722, “Optical-Controlled Kinetic Switch: Fine-Tuning of the Residence Time of an Antagonist Binding to the Vasopressin V2 Receptor in In Vitro, Ex Vivo, and In Vivo Models of ADPKD” (J Med Chem, 2023)
